Reference: patent publication US8834870B2, “Treatment of leukemias and chronic myeloproliferative diseases with antibodies to EphA3” (Kalobios Pharmaceuticals, Inc., priority 2009, dated 2014)

Experiments:
EphA3 antigen = EphA3 antigen (UniProt P29320); experiment: ELISA on EphA3 antigen
[1] = test system: peripheral blood cells from polycythemia vera (PV) patient; experiment: Apoptosis induction (Annexin V flow cytometry), PV primary cells; format: cell-based, human; settings: sample PB-2, PV; camptothecin 10 μM positive control; 24 hours
Experimental: (§1) An engineered human activating antibody that binds to EphA3 was evaluated for the ability to induce apoptosis in vitro in primary cells isolated from patients or individuals suffering from myeloproliferative disorders. Cells were seeded at 2.5×10^5 cells/well in 96-well “U”-bottom plates in 0.1 ml culture medium (RPMI 1640 with 10% fetal bovine serum). Anti-EphA3 antibody or human IgG1 isotype control antibody was added to final concentrations between 10 μg/ml and 1 ng/ml and the plates were incubated at 37° C. and 5% carbon dioxide in a tissue-culture incubator for 24 hours. As a positive control for apoptosis induction, separate cell samples were incubated with camptothecin (10 μM; Calbiochem). At the end of the incubation, cells were harvested and washed by centrifugation at 1000 rpm for 5 min followed by incubation in 0.1 ml of 1× Annexin V binding buffer (BD Pharmingen, Cat #556547, component no. 51-66121E) containing 5 μl FITC-conjugated Annexin V (BD Pharmingen, component no. 51-65874×) and 5 μl Propidium Iodide (component no. 51-66211E) for 15 minutes at room temperature in the dark. Four hundred μl of 1× binding buffer was added to each tube and annexin V-staining apoptotic cells were identified by flow cytometry. FIG. 4 provides data showing apoptosis activity of a human engineered antibody.

[2] = test system: bone marrow cells from AML patients; experiment: Apoptosis induction (Annexin V flow cytometry), AML primary cells; format: cell-based, human; settings: camptothecin 10 μM positive control, 24 hours
Experimental: An engineered human activating antibody that binds to EphA3 was evaluated for the ability to induce apoptosis in vitro in primary cells isolated from patients or individuals suffering from myeloproliferative disorders. Cells were seeded at 2.5×10^5 cells/well in 96-well “U”-bottom plates in 0.1 ml culture medium (RPMI 1640 with 10% fetal bovine serum). Anti-EphA3 antibody or human IgG1 isotype control antibody was added to final concentrations between 10 μg/ml and 1 ng/ml and the plates were incubated at 37° C. and 5% carbon dioxide in a tissue-culture incubator for 24 hours. As a positive control for apoptosis induction, separate cell samples were incubated with camptothecin (10 μM; Calbiochem). […]
In these samples, in each case in which CD123^+CD34^+CD38^− leukemic stem cells (LSC) could be identified, 100% of these LSC were also positive for EphA3 expression. In the majority of samples, there is good correlation between the percent of cells killed either by ADCC or apoptosis mediated by an engineered human anti-EphA3 antibody and the proportion of cells detected as positive for EphA3 by flow cytometry, indicating specificity of the antibody for EphA3-expressing cells.

[3] = test system: peripheral blood cells from essential thrombocythemia (ET) patient; experiment: Apoptosis induction (Annexin V flow cytometry), ET primary cells; format: cell-based, human; settings: sample PB-1, ET; camptothecin 10 μM positive control; 24 hours
Experimental: as §1

UniProt P29320, sequence (P29320 21-541 limits assumed): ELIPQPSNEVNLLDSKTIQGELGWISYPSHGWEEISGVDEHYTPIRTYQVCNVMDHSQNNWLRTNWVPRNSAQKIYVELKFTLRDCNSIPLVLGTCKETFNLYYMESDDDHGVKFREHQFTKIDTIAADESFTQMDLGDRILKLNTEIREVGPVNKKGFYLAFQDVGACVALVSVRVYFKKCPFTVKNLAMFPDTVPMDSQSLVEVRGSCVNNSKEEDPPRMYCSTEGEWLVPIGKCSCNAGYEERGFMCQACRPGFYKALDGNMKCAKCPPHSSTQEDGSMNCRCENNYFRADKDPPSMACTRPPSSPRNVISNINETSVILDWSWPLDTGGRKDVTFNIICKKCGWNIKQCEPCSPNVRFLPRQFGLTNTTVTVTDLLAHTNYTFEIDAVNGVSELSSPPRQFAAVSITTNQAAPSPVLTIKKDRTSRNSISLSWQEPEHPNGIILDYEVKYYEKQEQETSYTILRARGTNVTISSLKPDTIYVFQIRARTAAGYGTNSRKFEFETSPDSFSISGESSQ

## monoclonal antibody IIIA4
EphA3 antigen
  AFFINITY: 2.5 nM

## CC[C@@]1(O)C(=O)OCc2c1cc1n(c2=O)Cc2cc3ccccc3nc2-1 [Camptothecin, camptothecin]
[1]
  Camptothecin-mediated apoptosis (% cell death): 73.2%
[2]; sample BM, 06, AML
  Camptothecin-mediated apoptosis (% cell death): 59.8%
[2]; sample BM, 07, AML
  Camptothecin-mediated apoptosis (% cell death): 47.8%
[3]
  Camptothecin-mediated apoptosis (% cell death): 78%
